Experimental data reported in patent US9926294B2, “Pesticidally active heterocyclic derivatives with sulphur containing substituents” (Syngenta Participations AG, priority 2014, dated 2018).

Tests used:
Type in all cases: in vivo
[1] = tested on: Diabrotica balteata (corn root worm); test: Example B4: Diabrotica balteata larvae L2 on maize sprouts, feeding/contact, preventative; details: 120 h, L2 larvae on sprayed maize sprouts, 5 days incubation, read-out: activity (larval mortality, growth regulation)
Method: Example B4: Activity Against Diabrotica Balteata (Corn Root Worm)
(Larvae L2 on Maize Sprouts, Feeding/Contact, Preventative)
Maize sprouts, placed on an agar layer in 24 well micro titer plates were treated with test solutions by spraying. After drying, the MTPs were infested with L2 larvae (6-10 per well). After an incubation period of 5 days, samples were checked for larval mortality and growth regulation.

[2] = tested on: Bemisia tabaci (cotton white fly); test: Example B9: Bemisia tabaci adulticide contact activity, preventative; details: foliar, 168 h, adult white flies on sprayed cotton leaf discs, 7 DAT, read-out: activity (mortality, special effects)
Method: Example B9: Activity Against Bemisia tabaci (Cotton White Fly)
(Adulticide Contact Activity, Preventative), Adult
(§1) Cotton leaf discs were placed on agar in a 24-well microtiter plate and sprayed with test solutions. After drying, the leaf discs were infested with adult white flies. After an incubation period of 7 DAT, samples were checked for mortality and special effects (e.g. phytotoxicity).

[3] = tested on: Spodoptera littoralis (Egyptian cotton leaf worm); test: Example B1: Spodoptera littoralis larvicide, feeding/residual contact, preventive (cotton leaf discs); details: foliar, 72 h, L1 larvae on sprayed cotton leaf discs, 3 days after treatment, read-out: activity (mortality, repellent effect, feeding behaviour, growth regulation)
Source text: Example B1: Activity Against Spodoptera littoralis (Egyptian Cotton Leaf Worm)
Larvicide, Feeding/Residual Contact Activity, Preventive
Cotton leaf discs were placed on agar in a 24-well microtiter plate and sprayed with test solutions.
After drying, the leaf discs were infested with 5 L1 larvae. The samples were checked for mortality, repellent effect, feeding behaviour, and growth regulation 3 days after treatment (DAT).

[4] = tested on: Plutella xylostella (diamond back moth); test: Example B3: Plutella xylostella larvicide, feeding/residual contact, preventive (artificial diet); details: 120 h, L2 larvae on artificial diet, 5 days incubation, read-out: activity (larval mortality, antifeedant, growth regulation)
Method: Example B3: Activity Against Plutella xylostella (Diamond Back Moth)
(Larvicide, Feeding/Residual Contact Activity, Preventive)
24-well microtiter plate (MTP) with artificial diet was treated with test solutions by pipetting. After drying, the MTPs were infested with L2 larvae (10-15 per well). After an incubation period of 5 days, samples were checked for larval mortality, antifeedant and growth regulation.

[5] = tested on: Thrips tabaci (onion thrips); test: Example B8: Thrips tabaci mixed population, feeding/residual contact, preventive; details: foliar, 168 h, mixed population on sprayed sunflower leaf discs, 7 days incubation, read-out: activity (mortality, special effects)
Method: Example B8: Activity Against Thrips tabaci (Onion Thrips)
(Mixed Population, Feeding/Residual Contact Activity, Preventive)
as §1, with “Sunflower” for “Cotton”, “a thrips population of mixed ages.” for “adult white flies.”, “days,” for “DAT,”

[6] = tested on: Myzus persicae (green peach aphid); test: Example B5: Myzus persicae feeding/residual contact, preventive, mixed population (sunflower leaf discs); details: foliar, 144 h, mixed population on sprayed sunflower leaf discs, 6 DAT, read-out: activity (mortality, special effects)
Method: Example B5: Activity Against Myzus persicae (Green Peach Aphid)
(Feeding/Residual Contact Activity, Preventive), Mixed Population
(§2) Sunflower leaf discs were placed on agar in a 24-well microtiter plate and sprayed with test solutions. After drying, the leaf discs were infested with an aphid population of mixed ages. After an incubation period of 6 DAT, samples were checked for mortality and special effects (e.g. phytotoxicity).

[7] = tested on: Myzus persicae (green peach aphid); test: Example B7: Myzus persicae systemic/feeding activity, curative, mixed population (pea seedlings); details: 144 h, roots of infested pea seedlings in test solution, 6 days after introduction, read-out: activity (mortality, special effects on the plant)
Source text: Example B7: Activity Against Myzus persicae (Green Peach Aphid)
(Systemic/Feeding Activity, Curative), Mixed Population
Roots of pea seedlings, infested with an aphid population of mixed ages, were placed directly in the test solutions. 6 days after introduction, samples were checked for mortality and special effects on the plant.

[8] = tested on: Myzus persicae (green peach aphid); test: Example B6: Myzus persicae feeding activity sachet test, mixed population; details: 120 h, sachet test in sucrose solution, 5 days after infestation
Source text: Example B6: Activity Against Myzus persicae (Green Peach Aphid)
(Feeding Activity Sachet Test), Mixed Population
Test compounds were applied by pipette into 24 well plates and mixed with Sucrose solution. The plates were closed with a stretched Parafilm. A plastic stencil with 24 holes is placed onto the plate and infested pea seedlings were placed directly on the Parafilm. The infested plate is closed with a gel blotting paper and another plastic stencil and then turned upside down. 5 days after infestation the samples were checked on mortality. Application rate: 12.5 ppm.

[9] = tested on: Spodoptera littoralis (Egyptian cotton leaf worm); test: Example B2: Spodoptera littoralis systemic activity (lettuce on agar); details: 120 h, systemic via lettuce roots, 5 days after infestation, read-out: activity (mortality, repellent effect, feeding behavior, growth regulation)
Source text: Example B2: Activity Against Spodoptera littoralis (Egyptian Cotton Leaf Worm)
Test compounds were applied by pipette into 24 well plates and mixed with agar. Lettuce seeds were placed on the agar and the multi well plate is closed by another plate which contains also agar. After 7 days the roots have absorbed the compound and the lettuce has grown into the lid plate. The lettuce leaves were now cut off into the lid plate. Spodoptera eggs were pipetted through a plastic stencil on a humid gel blotting paper and the plate closed with it. The samples are checked for mortality, repellent effect, feeding behavior, and growth regulation 5 days after infestation.

[10] = tested on: Tetranychus urticae (two-spotted spider mite); test: Example B12: Tetranychus urticae mixed population on bean leaf discs; details: foliar, 192 h, mixed population (mobile stages) on sprayed bean leaf discs, 8 days after infestation
Method: Example B12: Activity Against Tetranychus urticae (Two-Spotted Spider Mite)
Bean leaf discs on agar in 24-well microtiter plates were sprayed with aqueous test solutions prepared from 10′000 ppm DMSO stock solutions. After drying the leaf discs were infested with a mite population of mixed ages. The samples were assessed for mortality on mixed population (mobile stages) 8 days after infestation.

[11] = tested on: Frankliniella occidentalis (western flower thrips); test: Example B11: Frankliniella occidentalis mixed population, feeding/contact, preventative; details: foliar, 168 h, mixed population on sprayed sunflower leaf discs, 7 DAT, read-out: activity (mortality, special effects)
Method: Example B11: Activity Against Frankliniella occidentalis (Western Flower Thrips)
(Mixed Population, Feeding/Contact, Preventative)
as §2, with “are” for “were”, “a Frankliniella” for “an aphid”, “7” for “6”

[12] = tested on: Euschistus heros (neotropical brown stink bug); test: Example B10: Euschistus heros N-2 nymphs on soybean leaf; details: 120 h, N-2 nymphs on sprayed soybean leaf, 5 days after infestation
Method: Example B10: Activity Against Euschistus heros (Neotropical Brown Stink Bug)
Soybean leaf on agar in 24-well microtiter plates were sprayed with aqueous test solutions prepared from 10′000 ppm DMSO stock solutions. After drying the leaf were infested with N-2 nymphs. The samples were assessed for mortality 5 days after infestation.

Row | Compound | mortality at 400 ppm [1] [%] | mortality at 400 ppm [2] [%] | mortality at 400 ppm [3] [%] | mortality at 400 ppm [4] [%] | mortality at 400 ppm [5] [%] | mortality at 400 ppm [6] [%] | mortality at 24 ppm [7] [%] | mortality at 12.5 ppm [8] [%] | mortality at 12.5 ppm [9] [%] | mortality at 400 ppm [10] [%] | mortality at 400 ppm [11] [%] | mortality at 400 ppm [12] [%]
1 | CCSc1cc(C(F)(F)F)cnc1-c1nnc(-c2cc(C(F)(F)F)ccn2)n1C [Compound P1, 3-ethylsulfanyl-2-[4-methyl-5-[4-(trifluoromethyl)-2-pyridyl]-1,2,4-triazol-3-yl]-5-(trifluoromethyl)pyridine] | > 80 | > 80 | > 80 | > 80 | > 80 | > 80 |  |  |  |  |  | 
2 | CCS(=O)(=O)c1cc(C(F)(F)F)cnc1-c1nnc(-c2cc(C(F)(F)F)ccn2)n1C [Compound P2, 3-ethylsulfonyl-2-[4-methyl-5-[4-(trifluoromethyl)-2-pyridyl]-1,2,4-triazol-3-yl]-5-(trifluoromethyl)pyridine] | > 80 | > 80 | > 80 | > 80 | > 80 | > 80 | ≥ 80 | ≥ 80 | ≥ 80 |  |  | 
3 | CCS(=O)(=O)c1cc(C(F)(F)F)cnc1-c1nnc(-c2ccc(C(F)(F)F)nc2)n1C [Compound P6] |  |  |  |  |  |  | ≥ 80 |  |  | ≥ 80 |  | 
4 | CCS(=O)(=O)c1cc(C(F)(F)F)cnc1-c1nnc(-c2ccccc2)n1C [Compound P11] | > 80 |  |  |  |  |  |  |  |  | ≥ 80 |  | 
5 | CCS(=O)(=O)c1cc(C(F)(F)F)cnc1-c1nnc(-c2cc(F)cc(F)c2)n1C [Compound P29] |  |  |  | > 80 |  |  |  |  |  | ≥ 80 |  | 
6 | CCS(=O)(=O)c1cc(C(F)(F)F)cnc1-c1nnc(-c2cccnc2)n1C [Compound P42] |  |  |  |  |  |  |  |  |  |  | > 80 | 
7 | CCS(=O)(=O)c1cc(C(F)(F)F)cnc1-c1nnc(-c2ccc(Cl)c(C(F)(F)F)c2)n1C [Compound P48] | > 80 | > 80 | > 80 |  |  | > 80 |  |  |  |  |  | > 80
8 | CCSc1cc(OC(F)F)cnc1-c1nnc(-c2ccc(C(F)(F)F)nc2)n1C [Compound P57] |  |  |  |  |  |  |  |  |  | ≥ 80 |  | 
9 | CCSc1cc(C(F)(F)F)ccc1-c1nnc(-c2cc(C(F)(F)F)ccn2)n1C [Compound P59] | > 80 | > 80 | > 80 | > 80 | > 80 | > 80 |  |  |  |  |  | 
10 | CCS(=O)(=O)c1cc(C(F)(F)F)ccc1-c1nnc(-c2cc(C(F)(F)F)ccn2)n1C [Compound P60] | > 80 | > 80 | > 80 | > 80 | > 80 | > 80 | ≥ 80 |  | ≥ 80 |  |  | 
11 | CCS(=O)(=O)c1cc(C(F)(F)F)cnc1-c1nnc(-c2cnc(C(F)(F)F)nc2)n1C [Compound P62] | > 80 |  | > 80 | > 80 |  | > 80 |  |  |  |  |  | > 80
12 | CCn1c(-c2cc(C(F)(F)F)ccn2)nnc1-c1ncc(C(F)(F)F)cc1S(=O)(=O)CC [Compound P65] | > 80 |  | > 80 |  | > 80 |  |  |  | ≥ 80 |  |  | 
13 | CCS(=O)(=O)c1cccnc1-c1nnc(-c2cc(C(F)(F)F)ccn2)n1C [Compound P69] | > 80 | > 80 | > 80 | > 80 |  | > 80 | ≥ 80 |  |  |  |  | > 80
